Read-outs that look alike come from different tables or passages of the source.
Columns and labels:
CDK3/Cyclin E1 = CDK3/Cyclin E1 (Homo sapiens, UniProt Q00526); assay: NanoBRET live-cell target engagement, CDK3-NanoLuc/Cyclin E1 in HEK-293; type: binding; details: CDK3/E1; for IC50: read-out: IC50
CDK16/Cyclin Y = CDK16/Cyclin Y (Homo sapiens, UniProt Q00536); assay: NanoBRET live-cell target engagement, CDK16-NanoLuc/Cyclin Y in HEK-293; type: binding; details: CDK16/Y; for IC50: read-out: IC50
CDK19/Cyclin C = CDK19/Cyclin C (Homo sapiens, UniProt Q9BWU1); assay: NanoBRET live-cell target engagement, NanoLuc-CDK19/Cyclin C in HEK-293; details: CDK19/C
CDK1/Cyclin E1 = CDK1/Cyclin E1 (Homo sapiens, UniProt P06493); assay: NanoBRET live-cell target engagement, CDK1-NanoLuc/Cyclin E1 in HEK-293; type: binding
CDK11B/Cyclin L2 = CDK11B/Cyclin L2 (Homo sapiens, UniProt P21127); assay: NanoBRET live-cell target engagement, CDK11B-NanoLuc/Cyclin L2 in HEK-293; type: binding; details: CDK11b/L2; for IC50: read-out: IC50
CDK2/Cyclin E1 = CDK2/Cyclin E1 (Homo sapiens, UniProt P24941); assay: NanoBRET live-cell target engagement, CDK2-NanoLuc/Cyclin E1 in HEK-293; type: binding
CDK4/Cyclin D1 = CDK4/Cyclin D1 (Homo sapiens, UniProt P11802); assay: NanoBRET live-cell target engagement, NanoLuc-CDK4/Cyclin D1 in HEK-293; type: binding; details: CDK4/D1; for IC50: read-out: IC50
CDK9/Cyclin K = CDK9/Cyclin K (Homo sapiens, UniProt P50750); assay: NanoBRET live-cell target engagement, NanoLuc-CDK9/Cyclin K in HEK-293; type: binding; details: CDK9/K
CDK5/CDK5R1 = CDK5/CDK5R1 (Homo sapiens, UniProt Q00535); assay: NanoBRET live-cell target engagement, CDK5-NanoLuc/CDK5R1 in HEK-293; type: binding; details: CDK5/CDK5R1; for IC50: read-out: IC50

CDK16/Cyclin Y, sequence (Q00536 whole entry): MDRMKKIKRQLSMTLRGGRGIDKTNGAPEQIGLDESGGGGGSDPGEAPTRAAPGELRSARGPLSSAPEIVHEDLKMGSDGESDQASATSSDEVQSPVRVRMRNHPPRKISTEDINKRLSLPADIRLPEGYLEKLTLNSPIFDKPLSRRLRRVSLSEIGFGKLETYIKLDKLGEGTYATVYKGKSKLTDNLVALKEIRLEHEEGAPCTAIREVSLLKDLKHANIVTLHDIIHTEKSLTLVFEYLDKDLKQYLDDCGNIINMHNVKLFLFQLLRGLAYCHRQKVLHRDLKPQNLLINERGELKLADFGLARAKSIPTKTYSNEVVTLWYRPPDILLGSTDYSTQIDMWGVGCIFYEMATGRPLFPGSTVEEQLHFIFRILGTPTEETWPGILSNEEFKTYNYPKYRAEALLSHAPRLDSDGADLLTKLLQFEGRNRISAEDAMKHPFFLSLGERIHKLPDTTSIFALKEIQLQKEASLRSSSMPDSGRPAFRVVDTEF
CDK16/Cyclin Y, sequence (Q8ND76 whole entry partner): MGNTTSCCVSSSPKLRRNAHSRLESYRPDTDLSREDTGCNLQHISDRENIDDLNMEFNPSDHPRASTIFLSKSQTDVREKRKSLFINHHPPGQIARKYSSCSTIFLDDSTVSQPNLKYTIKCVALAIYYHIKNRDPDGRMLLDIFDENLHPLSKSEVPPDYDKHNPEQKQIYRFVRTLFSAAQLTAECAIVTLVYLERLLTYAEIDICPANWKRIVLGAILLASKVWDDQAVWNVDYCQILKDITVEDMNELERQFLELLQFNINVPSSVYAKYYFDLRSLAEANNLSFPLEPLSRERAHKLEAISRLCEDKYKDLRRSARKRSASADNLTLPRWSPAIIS
CDK3/Cyclin E1, sequence (Q00526 whole entry): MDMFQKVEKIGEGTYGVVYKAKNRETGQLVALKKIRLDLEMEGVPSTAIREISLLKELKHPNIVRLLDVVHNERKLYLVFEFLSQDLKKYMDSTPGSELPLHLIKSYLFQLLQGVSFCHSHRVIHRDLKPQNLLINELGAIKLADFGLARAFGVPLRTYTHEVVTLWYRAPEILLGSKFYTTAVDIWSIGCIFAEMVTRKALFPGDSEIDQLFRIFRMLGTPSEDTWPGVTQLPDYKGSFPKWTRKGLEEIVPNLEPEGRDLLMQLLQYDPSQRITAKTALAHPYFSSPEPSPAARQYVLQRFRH
CDK3/Cyclin E1, sequence (P24864 whole entry partner): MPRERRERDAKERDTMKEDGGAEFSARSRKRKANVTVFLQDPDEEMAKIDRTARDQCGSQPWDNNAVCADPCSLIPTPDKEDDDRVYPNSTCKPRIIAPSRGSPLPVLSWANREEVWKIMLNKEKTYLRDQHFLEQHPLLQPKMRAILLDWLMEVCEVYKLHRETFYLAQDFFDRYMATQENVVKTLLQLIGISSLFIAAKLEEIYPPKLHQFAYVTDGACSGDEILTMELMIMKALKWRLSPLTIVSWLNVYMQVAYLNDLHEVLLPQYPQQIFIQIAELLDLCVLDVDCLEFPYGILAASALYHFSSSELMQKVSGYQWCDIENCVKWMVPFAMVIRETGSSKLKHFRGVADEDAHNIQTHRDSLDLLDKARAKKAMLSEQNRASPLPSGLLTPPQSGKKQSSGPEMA
CDK19/Cyclin C, sequence (Q9BWU1 whole entry): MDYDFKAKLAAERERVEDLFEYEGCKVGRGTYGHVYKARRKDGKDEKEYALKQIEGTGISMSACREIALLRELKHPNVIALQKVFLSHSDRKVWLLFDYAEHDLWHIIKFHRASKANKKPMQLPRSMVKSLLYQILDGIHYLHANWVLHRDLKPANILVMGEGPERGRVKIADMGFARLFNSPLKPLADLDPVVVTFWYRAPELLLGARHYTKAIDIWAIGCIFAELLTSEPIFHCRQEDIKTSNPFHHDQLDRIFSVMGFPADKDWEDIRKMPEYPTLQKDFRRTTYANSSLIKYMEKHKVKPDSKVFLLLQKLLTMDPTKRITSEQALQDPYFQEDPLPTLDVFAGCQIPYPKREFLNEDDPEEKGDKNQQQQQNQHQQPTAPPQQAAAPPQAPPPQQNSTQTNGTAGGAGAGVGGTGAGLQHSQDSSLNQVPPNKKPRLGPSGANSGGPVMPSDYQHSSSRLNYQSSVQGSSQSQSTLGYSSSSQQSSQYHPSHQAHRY
CDK19/Cyclin C, sequence (P24863 whole entry partner): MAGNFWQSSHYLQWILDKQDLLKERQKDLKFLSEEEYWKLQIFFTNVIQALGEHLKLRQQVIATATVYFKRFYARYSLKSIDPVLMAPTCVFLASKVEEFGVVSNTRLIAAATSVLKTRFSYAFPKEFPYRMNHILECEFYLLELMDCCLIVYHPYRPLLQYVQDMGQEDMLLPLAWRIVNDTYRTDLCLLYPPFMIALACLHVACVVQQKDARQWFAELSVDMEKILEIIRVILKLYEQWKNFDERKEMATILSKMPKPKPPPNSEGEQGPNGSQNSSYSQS
CDK11B/Cyclin L2, sequence (P21127 1-782 isoform P21127-2): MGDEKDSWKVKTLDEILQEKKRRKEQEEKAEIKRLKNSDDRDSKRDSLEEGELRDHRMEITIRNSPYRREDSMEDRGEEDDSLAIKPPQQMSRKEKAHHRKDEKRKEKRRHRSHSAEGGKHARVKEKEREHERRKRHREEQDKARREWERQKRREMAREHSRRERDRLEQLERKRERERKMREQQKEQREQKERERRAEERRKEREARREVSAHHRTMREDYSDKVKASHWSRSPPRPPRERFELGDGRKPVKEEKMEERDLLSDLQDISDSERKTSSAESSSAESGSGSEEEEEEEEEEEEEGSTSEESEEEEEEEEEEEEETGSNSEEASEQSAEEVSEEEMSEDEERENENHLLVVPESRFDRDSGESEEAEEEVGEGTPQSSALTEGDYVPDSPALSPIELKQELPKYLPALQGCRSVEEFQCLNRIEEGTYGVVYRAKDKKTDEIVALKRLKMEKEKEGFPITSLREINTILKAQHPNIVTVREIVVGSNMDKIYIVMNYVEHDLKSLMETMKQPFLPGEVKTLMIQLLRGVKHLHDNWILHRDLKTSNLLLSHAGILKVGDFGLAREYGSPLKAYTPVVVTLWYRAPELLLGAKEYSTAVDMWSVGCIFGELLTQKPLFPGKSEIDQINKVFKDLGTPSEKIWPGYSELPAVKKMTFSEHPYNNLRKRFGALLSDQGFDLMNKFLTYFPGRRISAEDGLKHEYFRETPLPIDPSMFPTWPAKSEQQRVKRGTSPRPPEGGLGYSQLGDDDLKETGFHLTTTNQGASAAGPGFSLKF
CDK9/Cyclin K, sequence (P50750 whole entry): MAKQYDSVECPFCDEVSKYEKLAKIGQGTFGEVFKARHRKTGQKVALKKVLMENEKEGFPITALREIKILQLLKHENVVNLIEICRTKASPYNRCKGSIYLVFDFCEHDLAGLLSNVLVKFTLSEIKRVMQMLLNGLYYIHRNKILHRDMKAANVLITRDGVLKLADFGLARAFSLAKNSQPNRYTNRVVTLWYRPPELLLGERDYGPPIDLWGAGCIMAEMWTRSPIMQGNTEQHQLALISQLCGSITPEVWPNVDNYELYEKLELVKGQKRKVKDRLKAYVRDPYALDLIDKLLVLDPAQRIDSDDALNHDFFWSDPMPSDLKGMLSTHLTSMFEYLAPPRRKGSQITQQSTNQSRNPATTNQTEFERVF
CDK9/Cyclin K, sequence (O75909 whole entry partner): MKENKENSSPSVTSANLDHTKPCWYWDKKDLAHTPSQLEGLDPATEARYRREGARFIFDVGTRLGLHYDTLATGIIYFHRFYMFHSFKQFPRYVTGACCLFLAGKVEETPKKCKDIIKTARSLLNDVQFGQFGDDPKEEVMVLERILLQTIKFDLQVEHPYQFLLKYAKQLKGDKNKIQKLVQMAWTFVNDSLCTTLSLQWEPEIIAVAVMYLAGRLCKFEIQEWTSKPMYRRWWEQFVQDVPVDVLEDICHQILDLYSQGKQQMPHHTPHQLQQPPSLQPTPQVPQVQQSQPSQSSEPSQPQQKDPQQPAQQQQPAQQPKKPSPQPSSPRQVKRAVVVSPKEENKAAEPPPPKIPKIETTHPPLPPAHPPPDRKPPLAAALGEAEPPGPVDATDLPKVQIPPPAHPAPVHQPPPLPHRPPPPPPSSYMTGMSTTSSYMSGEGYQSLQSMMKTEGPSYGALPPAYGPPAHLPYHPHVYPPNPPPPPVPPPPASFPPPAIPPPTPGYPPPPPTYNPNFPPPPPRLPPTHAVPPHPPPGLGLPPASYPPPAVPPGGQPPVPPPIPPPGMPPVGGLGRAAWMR
CDK1/Cyclin E1, sequence (P06493 whole entry): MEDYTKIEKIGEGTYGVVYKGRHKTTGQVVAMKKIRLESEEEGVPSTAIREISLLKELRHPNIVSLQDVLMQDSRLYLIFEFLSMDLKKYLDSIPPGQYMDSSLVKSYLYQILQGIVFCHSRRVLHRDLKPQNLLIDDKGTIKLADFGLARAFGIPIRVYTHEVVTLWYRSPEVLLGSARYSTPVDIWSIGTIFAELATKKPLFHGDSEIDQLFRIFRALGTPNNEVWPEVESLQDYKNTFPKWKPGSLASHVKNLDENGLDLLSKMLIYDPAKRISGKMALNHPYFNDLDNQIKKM
CDK1/Cyclin E1, sequence (P24864 whole entry partner): as the sequence (P24864 whole entry partner) above

Structure (SMILES): CC(C)c1cnn2c(NCc3ccccc3-n3cccn3)nc(OC3CCCNC3)nc12 (centres unmarked) [LDC4297]
- Inhibition at 10µM (%) (CDK3/Cyclin E1; average): 89.3%
- IC50 (CDK3/Cyclin E1; average (± SEM where n=3)): 240 ± 70 nM
- Inhibition at 10µM (%) (CDK3/Cyclin E1; experiment 1): 89.3%
- IC50 (CDK3/Cyclin E1; experiment 1): 121 nM
- Inhibition at 10µM (%) (CDK3/Cyclin E1; experiment 2): 89.4%
- IC50 (CDK3/Cyclin E1; experiment 2): 370 nM
- IC50 (CDK3/Cyclin E1; experiment 3): 234 nM
- IC50 (CDK16/Cyclin Y; average (± SEM where n=3)): 400 ± 30 nM
- Inhibition at 10µM (%) (CDK16/Cyclin Y; experiment 1): 87.3%
- IC50 (CDK16/Cyclin Y; experiment 1): 332 nM
- Inhibition at 10µM (%) (CDK16/Cyclin Y; experiment 2): 88.6%
- IC50 (CDK16/Cyclin Y; experiment 2): 430 nM
- IC50 (CDK16/Cyclin Y; experiment 3): 428 nM
- Inhibition at 10µM (%) (CDK19/Cyclin C; average): 18.1%
- Inhibition at 10µM (%) (CDK19/Cyclin C; experiment 1): 45.9%
- Inhibition at 10µM (%) (CDK19/Cyclin C; experiment 2): -9.6%
- Inhibition at 10µM (%) (CDK1/Cyclin E1; CDK1/E1, average): 72.7%
- IC50 (CDK1/Cyclin E1; CDK1/E1, average (± SEM where n=3), read-out: IC50): 70 ± 20 nM
- Inhibition at 10µM (%) (CDK1/Cyclin E1; CDK1/E1, experiment 1): 70.9%
- IC50 (CDK1/Cyclin E1; CDK1/E1, experiment 1, read-out: IC50): 70 nM
- Inhibition at 10µM (%) (CDK1/Cyclin E1; CDK1/E1, experiment 2): 74.5%
- IC50 (CDK1/Cyclin E1; CDK1/E1, experiment 2, read-out: IC50): 110 nM
- IC50 (CDK1/Cyclin E1; CDK1/E1, experiment 3, read-out: IC50): 43 nM
- IC50 (CDK1/Cyclin E1; live HEK-293, 2 h, mean ± S.E.M. (n=3) or mean (n=2), read-out: IC50 for CDK/cyclin complexes, CDK1/E1): 70 ± 20 nM
- Inhibition at 10µM (%) (CDK11B/Cyclin L2; average): 53.6%
- IC50 (CDK11B/Cyclin L2; average (± SEM where n=3)): 760 ± 60 nM
- Inhibition at 10µM (%) (CDK11B/Cyclin L2; experiment 1): 54.6%
- IC50 (CDK11B/Cyclin L2; experiment 1): 876 nM
- Inhibition at 10µM (%) (CDK11B/Cyclin L2; experiment 2): 52.6%
- IC50 (CDK11B/Cyclin L2; experiment 2): 685 nM
- IC50 (CDK11B/Cyclin L2; experiment 3): 732 nM
- Inhibition at 10µM (%) (CDK2/Cyclin E1; CDK2/E1, average): 88.3%
- IC50 (CDK2/Cyclin E1; CDK2/E1, average (± SEM where n=3), read-out: IC50): 85 ± 2 nM
- Inhibition at 10µM (%) (CDK2/Cyclin E1; CDK2/E1, experiment 1): 85.3%
- IC50 (CDK2/Cyclin E1; CDK2/E1, experiment 1, read-out: IC50): 81 nM
- Inhibition at 10µM (%) (CDK2/Cyclin E1; CDK2/E1, experiment 2): 91.3%
- IC50 (CDK2/Cyclin E1; CDK2/E1, experiment 2, read-out: IC50): 86 nM
- IC50 (CDK2/Cyclin E1; CDK2/E1, experiment 3, read-out: IC50): 85 nM
- IC50 (CDK2/Cyclin E1; live HEK-293, 2 h, mean ± S.E.M. (n=3) or mean (n=2), read-out: IC50 for CDK/cyclin complexes, CDK2/E1): 85 ± 2 nM
- Inhibition at 10µM (%) (CDK4/Cyclin D1; average): 58.1%
- IC50 (CDK4/Cyclin D1; average (± SEM where n=3)): 80 ± 30 nM
- Inhibition at 10µM (%) (CDK4/Cyclin D1; experiment 1): 52.3%
- IC50 (CDK4/Cyclin D1; experiment 1): 20 nM
- Inhibition at 10µM (%) (CDK4/Cyclin D1; experiment 2): 64.0%
- IC50 (CDK4/Cyclin D1; experiment 2): 100 nM
- IC50 (CDK4/Cyclin D1; experiment 3): 104 nM
- Inhibition at 10µM (%) (CDK9/Cyclin K; average): 42.4%
- Inhibition at 10µM (%) (CDK9/Cyclin K; experiment 1): 42.8%
- Inhibition at 10µM (%) (CDK9/Cyclin K; experiment 2): 42.0%
- Inhibition at 10µM (%) (CDK5/CDK5R1; average): 89.8%
- IC50 (CDK5/CDK5R1; average (± SEM where n=3)): 280 ± 50 nM
- Inhibition at 10µM (%) (CDK5/CDK5R1; experiment 1): 86.3%
- IC50 (CDK5/CDK5R1; experiment 1): 204 nM

— PMC7265341, “Quantifying CDK inhibitor selectivity in live cells” (Nature Communications, 2020)
